Data published in publication PMC10819430, “Binding Affinity and Mechanism of Six PFAS with Human Serum Albumin: Insights from Multi-Spectroscopy, DFT and Molecular Dynamics Approaches” (Toxics, 2024).

Columns and labels:
HSA [1] = molecular target: T1, HSA (Homo sapiens, UniProt P02768); assay: 3D-EEM fluorescence spectra of HSA–PFAS; conditions: HSA 1 × 10^−6, PFAS 1.8 × 10^−5 mol·L^−1
T1 construct: HSA (≥96%) and six PFAS were all purchased from Aladdin Chemicals (Shanghai, China); purchased Aladdin Chemicals (Shanghai, China)
T1 sequence (P02768 25-609): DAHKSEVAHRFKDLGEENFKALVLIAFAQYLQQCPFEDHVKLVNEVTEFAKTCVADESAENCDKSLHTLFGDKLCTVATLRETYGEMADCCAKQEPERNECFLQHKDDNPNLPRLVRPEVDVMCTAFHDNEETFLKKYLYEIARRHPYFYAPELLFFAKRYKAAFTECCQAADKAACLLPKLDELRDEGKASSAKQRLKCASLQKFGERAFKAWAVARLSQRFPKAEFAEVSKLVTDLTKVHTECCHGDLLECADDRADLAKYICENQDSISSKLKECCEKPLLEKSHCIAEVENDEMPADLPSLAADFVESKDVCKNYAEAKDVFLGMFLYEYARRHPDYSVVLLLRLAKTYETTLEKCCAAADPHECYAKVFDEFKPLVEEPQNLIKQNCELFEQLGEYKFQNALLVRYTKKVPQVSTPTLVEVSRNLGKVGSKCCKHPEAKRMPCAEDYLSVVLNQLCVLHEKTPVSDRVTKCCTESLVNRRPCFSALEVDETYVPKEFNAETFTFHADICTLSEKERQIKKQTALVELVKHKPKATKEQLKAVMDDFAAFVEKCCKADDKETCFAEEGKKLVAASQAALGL
Description: The 3D-EEM spectra were recorded using specific scanning parameters at the scanning rate of 2400 nm·min^−1, an […] with 5 nm increments, and an emission of 280–550 nm with 2 nm increments. The concentrations of PFAS and HSA were set at 18 × 10^−6 mol·L^−1 and 1 × 10^−6 mol·L^−1, respectively.

[2] = molecular target: T2, Human Serum Albumin (HSA) (Homo sapiens, UniProt P02768); assay: Fluorescence quenching of HSA by PFAS (Stern–Volmer, double logarithmic and Van't Hoff analysis); format: binding; conditions: for Kq (quenching rate constant): τ0 taken as 10^−8 s
T2 construct: HSA (≥96%) and six PFAS were all purchased from Aladdin Chemicals (Shanghai, China); purchased Aladdin Chemicals (Shanghai, China)
T2 sequence (P02768 25-609): as above
Description: Fluorescence quenching experiments greatly benefit studies on the interactions between ligands and proteins. Initially, 3 mL of HSA stock solution was put into a 10 mm square quartz cuvette. Following that, PFAS stock solution was gradually added to achieve various final concentrations, namely 0, 3, 6, 9, 12, 15, 18 × 10^−6 mol·L^−1. By incrementally increasing the molar ratio of PFAS vs. HSA up to 18, their binding characteristics can be better investigated.
A thermostat (TR-01A, Bishui Corp, Beijing, China) was used to precisely control the solution temperature, which was set at 298, 304, and 310 K. This device includes a temperature controller and a metal heating cuvette module in conjunction with a fluorometer. This thermostat has a temperature range of 20–60 °C (293–333 K) and an accuracy of 0.1 °C Celsius. This step is critical for keeping the experimental conditions stable. Following that, the samples were fluorescence-scanned with a fluorometer (Cary Eclipse, Agilent, CA, USA). The excitation wavelength was set at 275 nm to efficiently stimulate tryptophan (Trp) and tyrosine (Tyr) residues. Additional test parameters include an emission of 275–500 nm, scanning rate of 1200 nm/min and PTV voltage of 700 v. Fluorescence quenching experiments were repeated three times, and the average values were taken for further calculation.
Fluorescence internal filtration (IFE) refers to the phenomenon where the fluorescence intensity decreases during fluorescence measurement due to the absorption of excitation or emission light by sample components (small molecules or proteins) in solution [19, 20]. This phenomenon is more obvious in the samples with a high concentration of adsorbent. A fluorescence correction formula was used in this study to correct the IFE effect on the data, as follows: Fcorr=Fobs×10^Aex+Aem/2 where Fcorr and Fobs are corrected and observed fluorescence emission intensities, respectively, Aex and Aem are UV-vis absorbances at the excitation and emission wavelengths.
The quenching constant can be calculated using the Stern–Volmer Equation (3). The results are shown in Table 2 and Figure 1: F0/F=1+Kqτ0=1+KsvQ where F0 and F refer to HSA fluorescence intensities without and with the quencher (PFAS solution); Kq is the biomacromolecule’s quenching rate constant; τ0 is the average fluorescence lifetime of the fluorescent molecule when the quencher PFAS is absent, usually taken as 10^−8 s; [Q] is the PFAS concentration; Ksv is the Stern–Volmer quenching constant; F0/F is the vertical axis; the Stern–Volmer curves of this system are 298, 304, and 310 K.
The double logarithmic formula can be used to calculate the binding constants and binding site numbers of HSA–PFAS complexes: logF0−F/F=logKb+nlogQ where F0 and F are parameters representing the initial fluorescence intensity and the fluorescence intensity after adding PFAS, respectively. The binding characteristics are represented by the binding constant, Kb, and the number of binding sites, n. The slope of the straight line is the number of binding sites, n, and the binding constant Kb is obtained from the exponent of the straight line’s intercept using the double logarithmic graph. Figure A2 and Table 2 show the calculation results.
The enthalpy change (∆H), entropy change (∆S), and free energy change (∆G) calculated from the Van’t Hoff equation [50] can be used to determine the type of interaction. lnKb=−ΔH/RT+ΔS/R ΔG=ΔH−TΔS=−RTlnKb where R represents the ideal gas constant (8.314 J·mol^−1·K^−1).

HSA [3] = molecular target: T1, HSA; assay: Circular dichroism (CD) spectrum, secondary structure of HSA; conditions: HSA:PFAS 1:18, 298 K
Excerpt: CD measurements (190–260 nm) were taken before and after the addition of PFAS to HSA using a J-815 CD spectrometer equipped with a PMT detector (JASCO, Tokyo, Japan). The protein concentration was set at 1 × 10^−6 mol/L, with a fixed HSA-to-PFAS concentration ratio of 1:18. The scanning rate was set to 100 nm/min with 0.5 nm increments, and the photometric mode of HT. Each sample was scanned three times. The blank buffer control was automatically subtracted during the scanning process. All tests were carried out at 298 K. The CONTIN analysis method from the DichroWeb was employed to determine the contents of the protein’s secondary structure.

HSA [4] = molecular target: T1, HSA; assay: Competitive probe experiment (warfarin, ibuprofen, lidocaine); format: binding
Excerpt: Competitive probe experiments are commonly used to identify specific binding sites in the structure of proteins. Three probe molecules known to bind to distinct binding sites on HSA were selected: warfarin (subdomain IIA), ibuprofen (subdomain IIIA), and lidocaine (subdomain IIB). These probe molecules would compete with PFAS for the same protein sites when binding with HSA. The potential binding sites can be inferred by monitoring and comparing changes in fluorescence intensity when probe molecules are present.

O=C(O)C(F)(F)C(F)(F)C(F)(F)C(F)(F)C(F)(F)C(F)(F)C(=O)O [DFSA, Dodecafluorosuberic Acid]
3D-EEM Peak A Position λex/λem (HSA [1]): 280/336
3D-EEM Peak B Position λex/λem (HSA [1]): 230/330
3D-EEM Peak A Intensity F (HSA [1]; HSA alone 673.66): 629.75 a.u.
3D-EEM Peak B Intensity F (HSA [1]; HSA alone 996.906): 839.38 a.u.
fluorescence quenching mechanism [2]: static quenching
quenching of HSA fluorescence intensity ([2]; PFAS 1.8 × 10^−5 mol·L^−1, HSA 1 × 10^−6 mol·L^−1, 298 K): 9.7%
KSV (Stern–Volmer quenching constant) ([2]; T = 298 K): 0.58 ± 0.06 × 10^4 L·mol^−1
n (number of binding sites) ([2]; T = 298 K): 0.88 ± 0.02
ΔG ([2]; T = 298 K): -4.338 kcal/mol
Kq (quenching rate constant) ([2]; T = 298 K): 0.58 ± 0.06 × 10^12 L·mol^−1·s^−1
KSV (Stern–Volmer quenching constant) ([2]; T = 304 K): 0.51 ± 0.04 × 10^4 L·mol^−1
n (number of binding sites) ([2]; T = 304 K): 0.98 ± 0.05
ΔG ([2]; T = 304 K): -5.136 kcal/mol
Kq (quenching rate constant) ([2]; T = 304 K): 0.51 ± 0.04 × 10^12 L·mol^−1·s^−1
KSV (Stern–Volmer quenching constant) ([2]; T = 310 K): 0.45 ± 0.05 × 10^4 L·mol^−1
n (number of binding sites) ([2]; T = 310 K): 1.13 ± 0.07
ΔG ([2]; T = 310 K): -6.123 kcal/mol
Kq (quenching rate constant) ([2]; T = 310 K): 0.45 ± 0.05 × 10^12 L·mol^−1·s^−1
ΔH ([2]; Van't Hoff, 298–310 K): 40.031 ± 1.02 kcal/mol
ΔS ([2]; Van't Hoff, 298–310 K): 622.5 ± 15.3 J·mol^−1·K^−1
affinity for HSA ([2]; fluorescence quenching experiments): low affinity
main interaction force from thermodynamic analysis ([2]; signs of ΔH and ΔS): hydrophobic interactions
HSA secondary structure: β-Sheet (HSA [3]; HSA alone 4.9): 4.0%
HSA secondary structure: β-Turn (HSA [3]; HSA alone 16.9): 15.8%
HSA secondary structure: Random Coil (HSA [3]; HSA alone 36.7): 37.0%
HSA secondary structure: α-Helix (HSA [3]; HSA alone 41.6): 43.2%
φ (rate of decrease in Kb) (HSA [4]; ibuprofen probe): 25.4%
φ (rate of decrease in Kb) (HSA [4]; lidocaine probe): 31.7%
φ (rate of decrease in Kb) (HSA [4]; warfarin probe): 93.3%
